Assay results from the supplement of paper PMC11061612.

Columns and labels:
Test in all cases: Bliss excess, mean over the matrix (fraction); higher = more synergy
[1] = system: CAL-29 (Bladder Carcinoma)
Method in brief: (§1)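 Cell lines in DMEM/F12 or RPMI with 10% FBS were plated in 1536-well plates, held 24 hours at 37°C, 5% CO2, then given two-drug dose matrices for 72 hours (DMSO typically 0.2%). Viability was read by CellTiter-Glo 2.0 luminescence and scaled as inhibition from 0 (vehicle wells) to 1 (blank wells). Combination Emax is the second-highest inhibition in the matrix; Bliss excess is observed combination effect minus expected EA + EB − EA·EB, EA and EB being single-agent effects.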

[2] = system: NCI-H2066 (Squamous Cell Lung Carcinoma)
Method in brief: as §1

CAS-1 (Glioblastoma) = system: CAS-1 (Glioblastoma)
Method in brief: as §1

A498 (Kidney Carcinoma) = system: A498 (Kidney Carcinoma)
Method in brief: as §1

[3] = system: SK-MES-1 (Squamous Cell Lung Carcinoma)
Method in brief: as §1

[4] = system: NCI-H1650 (Lung Adenocarcinoma)
Method in brief: as §1

ARH-77 (Non-Cancerous) = system: ARH-77 (Non-Cancerous)
Method in brief: as §1

[5] = system: BICR22 (Oral Cavity Carcinoma)
Method in brief: as §1

Hs-445 (Non-Cancerous) = system: Hs-445 (Non-Cancerous)
Method in brief: as §1

[6] = system: NCI-H1666 (Lung Adenocarcinoma)
Method in brief: as §1

[7] = system: SK-MG-1 (Low Grade Glioma)
Method in brief: as §1

[8] = system: CCK-81 (Colorectal Carcinoma)
Method in brief: as §1

[9] = system: COR-L311 (Small Cell Lung Carcinoma)
Method in brief: as §1

[10] = system: TT (Thyroid Gland Carcinoma)
Method in brief: as §1

[11] = system: NCI-H1581 (Non-Small Cell Lung Carcinoma)
Method in brief: as §1

[12] = system: COLO-824 (Breast Carcinoma)
Method in brief: as §1

[13] = system: ONS-76 (Other Solid Carcinomas)
Method in brief: as §1

[14] = system: CAPAN-2 (Pancreatic Carcinoma)
Method in brief: as §1

GI-ME-N (Neuroblastoma) = system: GI-ME-N (Neuroblastoma)
Method in brief: as §1

[15] = system: SISO (Cervical Carcinoma)
Method in brief: as §1

SMILES	Bliss excess [1]	Bliss excess [2]	Bliss excess (CAS-1 (Glioblastoma))	Bliss excess (A498 (Kidney Carcinoma))	Bliss excess [3]	Bliss excess [4]	Bliss excess (ARH-77 (Non-Cancerous))	Bliss excess [5]	Bliss excess (Hs-445 (Non-Cancerous))	Bliss excess [6]	Bliss excess [7]	Bliss excess [8]	Bliss excess [9]	Bliss excess [10]	Bliss excess [11]	Bliss excess [12]	Bliss excess [13]	Bliss excess [14]	Bliss excess (GI-ME-N (Neuroblastoma))	Bliss excess [15]
NC1(C(=O)N[C@@H](CCO)c2ccc(Cl)cc2)CCN(c2ncnc3[nH]ccc23)CC1 [Capivasertib] + C[C@@H]1COCCN1C2=NC(=NC(=C2)C3(CC3)[S@](=N)(=O)C)C4=C5C=CNC5=NC=C4 [AZD6738] (first compound max 10 µM, 7x7, partner max 10 µM)	-0.069	-0.0782	-0.0706	0.0375	-0.058	-0.0754	-0.0375	-0.0608	-0.0531	-0.0332	-0.034	-0.139	-0.0213	-0.0378	-0.0363	-0.0655	-0.0636	-0.0194	-0.0269	-0.0474
CN(CCO)CC[C@H](CSc1ccccc1)Nc1ccc(S(=O)(=O)NC(=O)c2ccc(N3CCC([C@@H](O)c4ccccc4-c4ccc(Cl)cc4)CC3)cc2)cc1S(=O)(=O)C(F)(F)F [AZD4320] + CCN(CCO)CCCOc1ccc2c(Nc3cc(CC(=O)Nc4cccc(F)c4)[nH]n3)ncnc2c1 [AZD2811] (first compound max 1 µM, 7x7, partner max 1 µM)	0.103	-0.0391	0.0208	-0.0371	-0.0328	-0.0164	0.0992	0.0119	0.175	-0.0283	0.0981	-0.0345	0.0249	0.0345	0.0584	0.0272	0.0817	0.0013	-0.057	0.0049
CC1(C)CCC(CN2CCN(c3ccc(C(=O)NS(=O)(=O)c4ccc(NCC5CCOCC5)c([N+](=O)[O-])c4)c(Oc4cnc5[nH]ccc5c4)c3)CC2)=C(c2ccc(Cl)cc2)C1 [Venetoclax] + C1CN(CCC1(C(=O)N[C@@H](CCO)C2=CC=C(C=C2)Cl)N)C3=NC=NC4=C3C=CN4 [Capivasertib] (first compound max 1 µM, 7x7, partner max 3 µM)	-0.0319	-0.0142	-0.0653	-0.121	-0.044	-0.0329	0.054	-0.0249	0.0344	-0.0541	-0.0649	-0.039	-0.0022	-0.103	-0.041	0.0048	-0.114	-0.0658	-0.0685	-0.0557
C[C@@H](c1ccc2nccn2c1)n1nnc2ncc(-c3cnn(C)c3)nc21 [Savolitinib] + CC1(C)CCC(CN2CCN(c3ccc(C(=O)NS(=O)(=O)c4ccc(NCC5CCOCC5)c([N+](=O)[O-])c4)c(Oc4cnc5[nH]ccc5c4)c3)CC2)=C(c2ccc(Cl)cc2)C1 [Venetoclax] (first compound max 1 µM, 7x7, partner max 1 µM)	-0.0655	-0.0524	-0.055	-0.0973	-0.0505	-0.0716	-0.0092	-0.0353	-0.0642	-0.0595	-0.0549	-0.0615	-0.022	-0.0724	-0.0697	-0.0178	-0.0468	-0.0682	-0.0925	-0.0438
CC1(C)CCC(CN2CCN(c3ccc(C(=O)NS(=O)(=O)c4ccc(NCC5CCOCC5)c([N+](=O)[O-])c4)c(Oc4cnc5[nH]ccc5c4)c3)CC2)=C(c2ccc(Cl)cc2)C1 [Venetoclax] + C=CCn1c(=O)c2cnc(Nc3ccc(N4CCN(C)CC4)cc3)nc2n1-c1cccc(C(C)(C)O)n1 [AZD1775] (first compound max 1 µM, partner max 1 µM)	-0.0167	-0.0598	0.0375	-0.0031	-0.0237	-0.0298	0.025	0.0453	0.127	-0.0228	-0.0369	-0.066	-0.104	0.0252	-0.009	0.0202	0.0043	-0.0013	-0.0689	-0.0765
Cc1cc2ncnn2cc1Nc1ncc2c(n1)n(C1CCOCC1)c(=O)n2C [AZD7648] + C=CCn1c(=O)c2cnc(Nc3ccc(N4CCN(C)CC4)cc3)nc2n1-c1cccc(C(C)(C)O)n1 [AZD1775] (first compound max 10 µM, partner max 1 µM)	-0.0241	-0.105	0.0219	0.0207	0.0167	0.0097	-0.0575	-0.0323	-0.0501	0.0305	0.009	0.0285	-0.119	-0.0215	-0.0334	-0.0448	-0.0046	0.0132	0.0213	-0.0005
NC1(C(=O)N[C@@H](CCO)c2ccc(Cl)cc2)CCN(c2ncnc3[nH]ccc23)CC1 [Capivasertib] + Cn1cnc2c(F)c(Nc3ccc(Br)cc3Cl)c(C(=O)NOCCO)cc21 [Selumetinib] (first compound max 10 µM, 7x7, partner max 10 µM)	-0.0058	-0.0867	-0.0798	-0.0108	0.0571	-0.0203	0.0614	0.114	0.0479	-0.0165	0.0059	0.0753	-0.0422	-0.0098	0.0371	0.0166	0.0914	0.0332	-0.0544	0.0089
CN(CCO)CC[C@H](CSc1ccccc1)Nc1ccc(S(=O)(=O)NC(=O)c2ccc(N3CCC([C@@H](O)c4ccccc4-c4ccc(Cl)cc4)CC3)cc2)cc1S(=O)(=O)C(F)(F)F [AZD4320] + Cc1cc2ncnn2cc1Nc1ncc2c(n1)n(C1CCOCC1)c(=O)n2C [AZD7648] (first compound max 1 µM, 7x7, partner max 10 µM)	-0.0074	0.0299	-0.048	-0.0393	-0.0632	-0.0227	0.0238	-0.0054	0.0079	-0.0352	-0.0239	-0.0091	0.0219	-0.0694	-0.0158	0.006	-0.0301	-0.0217	-0.0775	-0.0328
Cc1cc2ncnn2cc1Nc1ncc2c(n1)n(C1CCOCC1)c(=O)n2C [AZD7648] + O=C(c1cc(Cc2n[nH]c(=O)c3ccccc23)ccc1F)N1CCN(C(=O)C2CC2)CC1 [Olaparib] (first compound max 10 µM, 7x7, partner max 10 µM)	-0.0288	-0.0624	-0.0909	-0.0268	-0.0323	-0.0494	0.0393	-0.0548	0.0006	-0.0471	-0.0455	-0.0546	-0.126	-0.0702	-0.0319	-0.0115	-0.0419	-0.0757	-0.0382	-0.0226
Cn1cnc2c(F)c(Nc3ccc(Br)cc3Cl)c(C(=O)NOCCO)cc21 [Selumetinib] + CCN(CCO)CCCOc1ccc2c(Nc3cc(CC(=O)Nc4cccc(F)c4)[nH]n3)ncnc2c1 [AZD2811] (first compound max 10 µM, 7x7, partner max 1 µM)	0.0023	-0.0322	-0.0349	0.002	-0.048	-0.0333	0.0498	-0.0731	0.013	-0.0506	-0.0245	0.0101	-0.0546	-0.0472	-0.0775	-0.0218	-0.0464	0.0517	-0.0614	0.015
COc1cc2ncnc(Nc3ccc(F)c(Cl)c3)c2cc1OCCCN1CCOCC1 [Gefitinib] + CC(C)n1c(=O)n(C)c2cnc3cc(F)c(-c4ccc(OCCCN5CCCCC5)nc4)cc3c21 [AZD1390] (first compound max 10 µM, 7x7, partner max 0.3 µM)	-0.104	0.0099	-0.0603	-0.11	-0.0755	-0.0477	-0.0785	-0.013	-0.0356	-0.0064	-0.078	-0.072	-0.0545	-0.0526	-0.0457	-0.0795	-0.0386	-0.0652	-0.0827	-0.0627
Cc1nc(Nc2ncc(C(=O)Nc3c(C)cccc3Cl)s2)cc(N2CCN(CCO)CC2)n1 [Dasatinib] + CC(=O)Nc1cccc(-n2c(=O)n(C3CC3)c(=O)c3c(Nc4ccc(I)cc4F)n(C)c(=O)c(C)c32)c1 [Trametinib] (first compound max 2 µM, 7x7, partner max 1 µM)	0.0133	-0.0033	-0.107	-0.143	0.0198	-0.0167	-0.0311	-0.0037	-0.0873	-0.0644	-0.0654	-0.057	-0.0295	-0.0272	-0.0416	-0.0774	-0.0206	0.0749	-0.0849	-0.0267
C=CCn1c(=O)c2cnc(Nc3ccc(N4CCN(C)CC4)cc3)nc2n1-c1cccc(C(C)(C)O)n1 [AZD1775] + C1CN(CCC1(C(=O)N[C@@H](CCO)C2=CC=C(C=C2)Cl)N)C3=NC=NC4=C3C=CN4 [Capivasertib] (first compound max 3 µM, partner max 3 µM)	0.0187	-0.0567	0.0104	-0.0315	0.04	-0.0473	0.018	0.0369	-0.1	-0.0773	-0.0212	-0.0214	-0.0057	-0.0079	0.0271	-0.0289	-0.0258	-0.0949	-0.0726	-0.102
CCN(CCO)CCCOc1ccc2c(Nc3cc(CC(=O)Nc4cccc(F)c4)[nH]n3)ncnc2c1 [AZD2811] + C=CCn1c(=O)c2cnc(Nc3ccc(N4CCN(C)CC4)cc3)nc2n1-c1cccc(C(C)(C)O)n1 [AZD1775] (first compound max 1 µM, partner max 1 µM)	0.0208	-0.0589	0.032	-0.0494	-0.0112	-0.0277	0.024	-0.0093	-0.004	-0.0282	-0.0121	-0.037	-0.176	-0.0155	0.154	-0.0967	0.018	-0.0462	-0.0112	0.0157
